Tests used:
Format in all cases: cell-based, human
[1] = tested on: A549 cells with Kras G12S mutation; experiment: Cell proliferation inhibition experiment, 3D spheroid, CellTiter-Glo (Test Example 1); conditions: 5 days
Protocol: (§1) NCI-H358 was a human NSCLC cell line with Kras G12C mutation, which was cultured in a RPMI-1640 medium with 10% fetal bovine serum (FBS). A549 was a human lung adenocarcinoma cell line with Kras G12S mutation, which was cultured in an F-12K medium with 10% FBS. Cells in logarithmic growth phase were detached with trypsin and EDTA, collected and counted, and H358 was regulated to 1.8E4 cells/ml by using an RPMI-1640 medium with 2% FBS, while A549 was regulated to 8.9E3 cells/ml with an F-12K medium containing 2% FBS. 800 (45 μl) H358 cells and 400 (45 μl) A549 cells were seeded to 384-well spheroid plates, respectively, and cultured overnight to establish 3D cell models. 1000× stock solutions of compounds at a concentration gradient of 3.16 were prepared by using DMSO, and diluted 100 times by the medium with 2% FBS into 10× stock solutions of compounds. On the day after cell seeding, 5 μl of 10× stock solution of a compound was added to each well of cell culture plate, with a final concentration being 1× and a DMSO content of 0.1%. DMSO was used as the control, and the medium with 2% FBS was used as blank control group. After 5 days of cell culture with the compound, 25 μl of CellTiter-Glo working solution was added to each well, and mixed uniformly at 400 rpm and incubation for 30 minutes. After standing at room temperature for 30 minutes, 40 μl of mixed solution was transferred to a 384-well plate with white clear bottom. A value of luminescence was then read, and a cell proliferation inhibition rate (IR) (%)=(RLU control-RLU compound)/(RLU control−RLU blank)×100%. The value of IC50 was calculated by fitting a gradiently diluted concentration of the compound and the corresponding cell proliferation inhibition rate using a Prism 6 four-parameter method.

[2] = tested on: NCI-H358 cells with Kras G12C mutation; experiment: as above; conditions: 5 days
Protocol: as §1

[3] = tested on: phosphorylated ERK in MIA PaCa2 cells with Kras G12C mutation; experiment: p-ERK HTRF assay for cells (Test Example 2); conditions: Homo sapiens, MIA PaCa-2, 2 h, MIA PaCa2 cells, 2 hours with compound; read-out: p-ERK IC50
Protocol: MIA PaCa2 was a human pancreatic carcinoma cell line with Kras G12C mutation, which was cultured in a DMEM with 10% FBS and 2.5% Horse serum. Cells in logarithmic growth phase were detached with trypsin and EDTA, collected and counted, and 2.5E4 cells were seeded to a 96-well cell culture plate and cultured overnight. 1000× stock solutions of compounds at a concentration gradient of 3.16 were prepared by using DMSO, and diluted 200 times by the medium into 5× stock solutions of compounds. On the day after cell seeding, 5× stock solution of a compound was added to each well of cell culture plate, with a final concentration being 1× and a DMSO content of 0.1%. DMSO was used as the control. The residual culture was removed after culturing for 2 hours with the compound. To each well, 50 ul of cell lysis buffer was added and mixed uniformly and incubation for 30 minutes. Subsequently, 16 ul of mixed solution was transferred to a 96-well plate with white unclear bottom, and 16 ul of cell lysis buffer was added to the blank control group. After the completion of transfer, 4 ul of p-ERK HTRF antibody mixture was added to each well, and a value of fluorescence intensity was read after incubation for 4 hours. The inhibition rate (IR) of the compound was calculated by the following equation: IR (%)=(RLU control-RLU compound)/(RLU control−RLU blank)×100%. The value of IC50 was calculated by fitting a gradiently diluted concentration of the compound and the corresponding cell proliferation inhibition rate using a Prism 8 four-parameter method.

[4] = tested on: MIA PaCa-2 cells with Kras G12C mutation; experiment: Cell proliferation inhibition experiment, 3D spheroid, CellTiter-Glo (Test Example 3); conditions: Homo sapiens, MIA PaCa-2, 120 h, 5 days, read-out: MIA-PaCa2 IC50
Protocol: MIA PaCa-2 was a human pancreatic carcinoma cell line with Kras G12C mutation, which was cultured in a DMEM with 10% FBS and 2.5% Horse serum. A549 was a human lung adenocarcinoma cell line with Kras G12S mutation, which was cultured in an F-12K medium with 10% FBS. Cells in logarithmic growth phase were detached with trypsin and EDTA, collected and counted, and 200 MIA PaCa-2 cells and 400 A549 cells were seeded to 384-well spheroid plates, respectively, and cultured overnight to establish 3D cell models. 1000× stock solutions of compounds at a concentration gradient of 3.16 were prepared by using DMSO, and diluted 100 times by the medium into 10× stock solutions of compounds. On the day after cell seeding, 10× stock solution of a compound was added to each well of cell culture plate, with a final concentration being 1× and a DMSO content of 0.1%. DMSO was used as the control, and the medium was used as the blank. After 5 days of cell culture with the compound, 30 μl of CellTiter-Glo working solution was added to each well, and mixed uniformly and incubation for 30 minutes. After standing at room temperature for 30 minutes, 40 μl of mixed solution was transferred to a 384-well plate with white unclear bottom. A value of luminescence intensity was then read, and a cell proliferation inhibition rate (IR) (%)=(RLU control−RLU compound)/(RLU control−RLU blank)×100%. The value of IC50 was calculated by fitting a gradiently diluted concentration of the compound and the corresponding cell proliferation inhibition rate using an XLFit four-parameter method.

IC50 ([1]; Homo sapiens, A549, 120 h) | IC50 ([2]; Homo sapiens, NCI-H358, 120 h) | IC50 [3] | IC50 [4] | Structure (SMILES) | IC50 [1] | IC50 [2]
29200 nM | 49 nM | 439 nM | 220 nM | C=CC(=O)N1CCN2c3c(c(=O)n(-c4c(C)ccnc4C(C)C)c4nc(-c5c(O)cccc5F)c(F)cc34)N(C)C(=O)CC2C1 (stereo not drawn) [Compound Z43, 3-acryloyl-12-fluoro-11-(2-fluoro-6-hydroxyphenyl)-9-(2-isopropyl-4-methylpyridin-3-yl)-7-methyl-1,2,3,4,4a,5,7,9-octahydropyrazino[1′,2′:4,5][1,4]diaza[2,3-c][1,8]naphthyridin-6,8-dione] |  | 
> 30000 nM | 17 nM | 279 nM | 44 nM | C=CC(=O)N1CCN2c3c(c(=O)n(-c4c(C(C)C)ncnc4C(C)C)c4nc(-c5c(O)cccc5F)c(F)cc34)N(C)C(=O)[C@H]2C1 [Compound Z41, (4aR)-3-acryloyl-8-(4,6-diisopropylpyrimidin-5-yl)-11-fluoro-10-(2-fluoro-6-hydroxyphenyl)-6-methyl-2,3,4,4a,6,8-hexahydro-1H-pyrazino[1′,2′:4,5]pyrazino[2,3-c][1,8]naphthyridin-5,7-dione] |  | 
9240 nM | 24 nM | 170 nM | 103 nM | [2H]C([2H])([2H])N1C(=O)[C@H]2CN(C(=O)C=C)[C@H](C)CN2c2c1c(=O)n(-c1c(C(C)C)ncnc1C(C)C)c1nc(-c3c(F)cccc3OC)c(F)cc21 [Compound Z44a, (2R,4aR)-3-acryloyl-8-(4,6-diisopropylpyrimidin-5-yl)-11-fluoro-10-(2-fluoro-6-methoxyphenyl)-2-methyl-6-(methyl-d3)-2,3,4,4a,6,8-hexahydro-1H-pyrazino[1′,2′:4,5]pyrazino[2,3-c][1,8]naphthyridin-5,7-dione] |  | 
> 30000 nM | 11 nM | 88 nM | 34 nM | [2H]C([2H])([2H])N1C(=O)[C@H]2CN(C(=O)C=C)[C@H](C)CN2c2c1c(=O)n(-c1c(C(C)C)ncnc1C(C)C)c1nc(-c3c(O)cccc3F)c(F)cc21 [Compound Z44, (2R,4aR)-3-acryloyl-8-(4,6-diisopropylpyrimidin-5-yl)-11-fluoro-10-(2-fluoro-6-hydroxyphenyl)-2-methyl-6-(methyl-d3)-2,3,4,4a,6,8-hexahydro-1H-pyrazino[1′,2′:4,5]pyrazino[2,3-c][1,8]naphthyridin-5,7-dione] |  | 
> 30000 nM | 53 nM | 566 nM | 128 nM | C=CC(=O)N1CCN2c3c(c(=O)n(-c4c(C)ccnc4C(C)C)c4nc(-c5c(O)cccc5F)c(F)cc34)NC(=O)CC2C1 (stereo not drawn) [Compound Z42, 3-acryloyl-12-fluoro-11-(2-fluoro-6-hydroxyphenyl)-9-(2-isopropyl-4-methylpyridin-3-yl)-1,2,3,4,4a,5,7,9-octahydropyrazino[1′,2′:4,5][1,4]diaza[2,3-c][1,8]naphthyridin-6,8-dione] |  | 
> 30000 nM | 31 nM |  | 83 nM | C=CC(=O)N1C[C@@H]2C(=O)N(C)c3c(c4cc(F)c(-c5c(O)cccc5F)nc4n(-c4c(C(C)C)nn(C)c4C)c3=O)N2C[C@H]1C [Compound Z47, (2R,4aR)-3-acryloyl-11-fluoro-10-(2-fluoro-6-hydroxyphenyl)-8-(3-isopropyl-1,5-dimethyl-1H-pyrazol-4-yl)-2,6-dimethyl-2,3,4,4a,6,8-hexahydro-1H-pyrazino[1′,2′:4,5]pyrazino[2,3-c][1,8]naphthyridin-5,7-dione] |  | 

Second part, the molecule before the results:

Structure (SMILES) | IC50 ([1]; Homo sapiens, A549, 120 h) | IC50 ([2]; Homo sapiens, NCI-H358, 120 h) | IC50 [3] | IC50 [4] | IC50 [1] | IC50 [2]
C=CC(=O)N1C[C@@H]2COc3c(c4cc(F)c(-c5c(F)cccc5OC)nc4n(-c4c(C)ccnc4C(C)C)c3=O)N2C[C@H]1C [Compound Z3a, (2R,4aR)-3-acryloyl-11-fluoro-10-(2-fluoro-6-methoxyphenyl)-8-(2-isopropyl-4-methylpyridin-3-yl)-2-methyl-1,2,3,4,4a,5-hexahydropyrazino[1′,2′:4,5][1,4]oxopyrazino[2,3-c][1,8]naphthyridin-7(8H)-one] | > 10000 nM | 17 nM | 273 nM | 70 nM |  | 
C=CC(=O)N1CCN2c3c(c(=O)n(-c4c(C)ccnc4C(C)C)c4nc(-c5c(O)cccc5F)c(Cl)cc34)OC[C@H]2C1 [Compound Z6, (4aR)-3-acryloyl-11-chloro-10-(2-fluoro-6-hydroxyphenyl)-8-(2-isopropyl-4-methylpyridin-3-yl)-1,2,3,4,4a,5-hexahydropyrazino[1′,2′:4,5][1,4]oxazino[2,3-c][1,8]naphthyridin-7(8H)-one] | 11300 nM | 35 nM | 313 nM | 85 nM |  | 
[2H]C([2H])([2H])N1C(=O)[C@H]2CN(C(=O)C=C)CCN2c2c1c(=O)n(-c1c(C(C)C)ncnc1C(C)C)c1c(F)c(-c3c(O)cccc3F)c(Cl)cc21 (atropisomer, axis not shown; (aR)) [Compound Z39-1, (4aR) -3-acryloyl-11-chloro-8-(4,6-diisopropylpyrimidin-5-yl)-9-fluoro-10-(2-fluoro-6-hydroxyphenyl)-6-(deuteromethyl-d3)-2,3,4,4a,6,8-hexahydro-1H-pyrazino[1′,2′,5]pyrazino[2,3-c]quinolin-5,7-dione] |  |  | 11 nM | 1 nM | > 30000 nM | 0.6 nM
C=CC(=O)N1C[C@@H]2C(=O)N(C)c3c(c4cc(F)c(-c5c(O)cccc5F)nc4n(-c4c(C(C)C)ncnc4C(C)C)c3=O)N2C[C@H]1C [Compound Z40, (2R,4aR)-3-acryloyl-8-(4,6-diisopropylpyrimidin-5-yl)-11-fluoro-10-(2-fluoro-6-hydroxyphenyl)-2,6-dimethyl-2,3,4,4a,6,8-hexahydro-1H-pyrazino[1′,2′:4,5]pyrazino[2,3-c][1,8]naphthyridin-5,7-dione] | > 30000 nM | 11 nM | 78 nM | 12 nM |  | 
C=CC(=O)N1CCN2c3c(c(=O)n(-c4c(C)ccnc4C(C)C)c4nc(-c5c(O)cccc5F)c(F)cc34)N(C)C(=O)[C@H]2C1 [Compound Z9, (4aR)-3-acryloyl-11-fluoro-10-(2-fluoro-6-hydroxyphenyl)-8-(2-isopropyl-4-methylpyridin-3-yl)-6-methyl-2,3,4,4a,6,8-hexahydro-1H-pyrazino[1′,2′:4,5]pyrazino[2,3-c][1,8,8]naphthyridin-5,7-dione] |  | 32 nM | 187 nM | 74 nM |  | 

Source: patent publication US12054497B2, “Substituted heterocyclic fused cyclic compound, preparation method therefor and pharmaceutical use thereof” (GENFLEET THERAPEUTICS (SHANGHAI) INC., priority 2019, dated 2024)
